Results reported in patent US12263172B2, “Toll-like receptor agonists for use in the treatment of hepatitis b” (priority 2019, dated 2025).

Assay: Phase 1 single-ascending dose (Part 1): safety and tolerability in healthy adults
Format: in vivo, human
Method: This ongoing trial is a Phase 1 randomized, double-blind, placebo-controlled study in male and female healthy adult volunteers aged 18-55 years. All volunteers provided written, informed consent.
All volunteers were followed up for 4 weeks and safety and tolerability were continuously assessed throughout the study. All adverse events (AEs) were recorded from the time of consent to the completion visit and were graded using the DAIDS toxicity grading scale. Volunteers also underwent physical examinations, electrocardiograms, vital sign checks and clinical laboratory parameters (chemistry, haematology, urinalysis).

[1] = 1.8 mg and 1.25 mg fasted pooled

Q: Which results are given for `CCCCOc1nc(N)c2[nH]cc(Cc3ccc(CN4CCCC4)cc3)c2n1` [Compound 4]?
A: time within which fever and flu-like symptoms resolved (1.25 mg and 1.8 mg fasted): 24 to 48 h; time within which low lymphocyte count resolved (1.25 mg fasted and 1.8 mg): ≤ 72 h; subjects with treatment-related headache overall [1]: 5 subjects; subjects with treatment-related pyrexia overall [1]: 5 subjects; subjects with treatment-related pyrexia grade 1 (Part 1, all single doses): 3 subjects; subjects with treatment-related pyrexia grade 2 (Part 1, all single doses): 2 subjects; deaths, other SAEs, or AEs of at least grade 3 (Part 1 and Part 2): no deaths, other SAEs, or AEs of at least grade 3 occurred; serious AEs or dose-limiting toxicities (all tested single doses): no serious AEs or dose-limiting toxicities; Any AE (treatment-emergent) (single dose 0.2 mg fasted): 4 (67) n (%); Back pain Grade 1 (treatment-emergent AE) (single dose 0.2 mg fasted): 0 n (%); Chills Grade 1 (treatment-emergent AE) (single dose 0.2 mg fasted): 0 n (%); Contact dermatitis Grade 1 (treatment-emergent AE) (single dose 0.2 mg fasted): 2 (33) n (%); Dizziness Grade 1 (treatment-emergent AE) (single dose 0.2 mg fasted): 1 (17) n (%); ECG actual value: Heart rate (bpm) Low (single dose 0.2 mg fasted): 1 (16.7%) n (%); ECG actual value: QRS (ms) High (single dose 0.2 mg fasted): 0 n (%); ECG actual value: QTcB (ms) ]450; 480] (single dose 0.2 mg fasted): 0 n (%); ECG actual value: QTcF (ms) ]450; 480] (single dose 0.2 mg fasted): 0 n (%); ECG change from reference: QTcB (ms) [30; 60] (single dose 0.2 mg fasted): 0 n (%); ECG change from reference: QTcF (ms) [30; 60] (single dose 0.2 mg fasted): 0 n (%); Headache Grade 1 (treatment-emergent AE) (single dose 0.2 mg fasted): 1 (17) n (%); Headache Grade 2 (treatment-emergent AE) (single dose 0.2 mg fasted): 0 n (%); Hypertension Grade 1 (treatment-emergent AE) (single dose 0.2 mg fasted): 0 n (%); Hypertension Grade 2 (treatment-emergent AE) (single dose 0.2 mg fasted): 0 n (%); Myalgia Grade 1 (treatment-emergent AE) (single dose 0.2 mg fasted): 0 n (%); Oropharyngeal pain Grade 1 (treatment-emergent AE) (single dose 0.2 mg fasted): 0 n (%); Pyrexia Grade 1 (treatment-emergent AE) (single dose 0.2 mg fasted): 0 n (%); Pyrexia Grade 2 (treatment-emergent AE) (single dose 0.2 mg fasted): 0 n (%); URTI Grade 1 (treatment-emergent AE) (single dose 0.2 mg fasted): 0 n (%); lab toxicity: Amylase (U/L), upwards, Grade 1 (single dose 0.2 mg fasted): 0 n (%); lab toxicity: Amylase (U/L), upwards, Grade 2 (single dose 0.2 mg fasted): 1 (16.7%) n (%); lab toxicity: Cholesterol (mmol/L), upwards, Grade 1 (single dose 0.2 mg fasted): 0 n (%); lab toxicity: Cholesterol (mmol/L), upwards, Grade 2 (single dose 0.2 mg fasted): 1 (16.7%) n (%); lab toxicity: Creatine kinase (U/L), upwards, Grade 1 (single dose 0.2 mg fasted): 3 (50.0%) n (%); lab toxicity: Creatine kinase (U/L), upwards, Grade 2 (single dose 0.2 mg fasted): 0 n (%); lab toxicity: Creatine kinase (U/L), upwards, Grade 4 (single dose 0.2 mg fasted): 0 n (%); lab toxicity: Glucose (mmol/L), upwards, Grade 1 (single dose 0.2 mg fasted): 1 (16.7%) n (%); lab toxicity: Glucose (mmol/L), upwards, Grade 2 (single dose 0.2 mg fasted): 0 n (%); lab toxicity: LDL cholesterol (mmol/L, calculated), upwards, Grade 1 (single dose 0.2 mg fasted): 1 (16.7%) n (%); lab toxicity: LDL cholesterol (mmol/L, calculated), upwards, Grade 2 (single dose 0.2 mg fasted): 1 (16.7%) n (%); lab toxicity: LDL cholesterol (mmol/L, calculated), upwards, Grade 3 (single dose 0.2 mg fasted): 0 n (%); lab toxicity: Lymphocytes (giga/L), downwards, Grade 2 (single dose 0.2 mg fasted): 0 n (%); lab toxicity: Lymphocytes (giga/L), downwards, Grade 4 (single dose 0.2 mg fasted): 0 n (%); lab toxicity: Neutrophils, segmented (giga/L), downwards, Grade 1 (single dose 0.2 mg fasted): 0 n (%); lab toxicity: Neutrophils, segmented (giga/L), downwards, Grade 2 (single dose 0.2 mg fasted): 0 n (%); lab toxicity: Platelets (giga/L), downwards, Grade 1 (single dose 0.2 mg fasted): 0 n (%); lab toxicity: Sodium (mmol/L), upwards, Grade 1 (single dose 0.2 mg fasted): 0 n (%); lab toxicity: Sodium (mmol/L), upwards, Grade 2 (single dose 0.2 mg fasted): 0 n (%); lab toxicity: Triglycerides (mmol/L), upwards, Grade 1 (single dose 0.2 mg fasted): 1 (16.7%) n (%); lab toxicity: Triglycerides (mmol/L), upwards, Grade 2 (single dose 0.2 mg fasted): 2 (33.3%) n (%); lab toxicity: Triglycerides (mmol/L), upwards, Grade 3 (single dose 0.2 mg fasted): 0 n (%); lab toxicity: Urate (μmol/L), upwards, Grade 1 (single dose 0.2 mg fasted): 2 (33.3%) n (%); subjects with at least one AE for which any study drug or study was permanently stopped (single dose 0.2 mg fasted): 0 n (%); subjects with at least one AE for which any study drug or study was temporarily stopped (single dose 0.2 mg fasted): 0 n (%); subjects with at least one AE possibly related to any study drug (single dose 0.2 mg fasted): 0 n (%); subjects with at least one AE possibly, probably or very likely related to any study drug (single dose 0.2 mg fasted): 0 n (%); subjects with at least one AE probably related to any study drug (single dose 0.2 mg fasted): 0 n (%); subjects with at least one AE very likely related to any study drug (single dose 0.2 mg fasted): 0 n (%); subjects with at least one SAE (single dose 0.2 mg fasted): 0 n (%); subjects with at least one fatal AE (single dose 0.2 mg fasted): 0 n (%); subjects with at least one grade 1 AE (single dose 0.2 mg fasted): 4 (66.7%) n (%); subjects with at least one grade 2 AE (single dose 0.2 mg fasted): 0 n (%); subjects with at least one grade 3 or 4 AE (single dose 0.2 mg fasted): 0 n (%); subjects with low hematocrit levels (non-graded) (single dose 0.2 mg fasted): 5 (83.3%) n (%); treatment-related AE: Any AE (single dose 0.2 mg fasted): 0 n (%); treatment-related AE: Chills (single dose 0.2 mg fasted): 0 n (%); treatment-related AE: Dizziness (single dose 0.2 mg fasted): 0 n (%); treatment-related AE: General disorders and administration site conditions (single dose 0.2 mg fasted): 0 n (%); treatment-related AE: Headache (single dose 0.2 mg fasted): 0 n (%); treatment-related AE: Hypertension (single dose 0.2 mg fasted): 0 n (%); treatment-related AE: Myalgia (single dose 0.2 mg fasted): 0 n (%); treatment-related AE: Nervous system disorders (single dose 0.2 mg fasted): 0 n (%); treatment-related AE: Oropharyngeal pain (single dose 0.2 mg fasted): 0 n (%); treatment-related AE: Pyrexia (single dose 0.2 mg fasted): 0 n (%); treatment-related AE: Respiratory, thoracic and mediastinal disorders (single dose 0.2 mg fasted): 0 n (%); treatment-related AE: Vascular disorder (single dose 0.2 mg fasted): 0 n (%); vital signs: Respiratory rate (brpm) Grade 1 (single dose 0.2 mg fasted): 3 (50.0%) n (%); vital signs: Respiratory rate (brpm) Grade 2 (single dose 0.2 mg fasted): 0 n (%); vital signs: SaO2 (%) 90% to <95% (single dose 0.2 mg fasted): 1 (16.7%) n (%); vital signs: SaO2 (%) 95% to <98% (single dose 0.2 mg fasted): 4 (66.7%) n (%); vital signs: Standing DBP (mmHg) Grade 1 (single dose 0.2 mg fasted): 2 (33.3%) n (%); vital signs: Standing DBP (mmHg) Grade 2 (single dose 0.2 mg fasted): 0 n (%); vital signs: Standing DBP (mmHg) Grade 3 (single dose 0.2 mg fasted): 0 n (%); vital signs: Standing DBP (mmHg) Low (single dose 0.2 mg fasted): 0 n (%); vital signs: Standing SBP (mmHg) Grade 1 (single dose 0.2 mg fasted): 3 (50.0%) n (%); vital signs: Standing SBP (mmHg) Low (single dose 0.2 mg fasted): 0 n (%); vital signs: Standing pulse (bpm) High (single dose 0.2 mg fasted): 3 (50.0%) n (%); vital signs: Standing pulse (bpm) Low (single dose 0.2 mg fasted): 0 n (%); vital signs: Supine DBP (mmHg) Grade 1 (single dose 0.2 mg fasted): 0 n (%); vital signs: Supine DBP (mmHg) Low (single dose 0.2 mg fasted): 0 n (%); vital signs: Supine SBP (mmHg) Grade 1 (single dose 0.2 mg fasted): 0 n (%); vital signs: Supine SBP (mmHg) Grade 2 (single dose 0.2 mg fasted): 0 n (%); vital signs: Supine SBP (mmHg) Low (single dose 0.2 mg fasted): 1 (16.7%) n (%); vital signs: Supine pulse (bpm) Low (single dose 0.2 mg fasted): 2 (33.3%) n (%); ↑ AST Grade 3 (laboratory abnormality) (single dose 0.2 mg fasted): 0 n (%); ↑ Amylase Grade 2 (laboratory abnormality) (single dose 0.2 mg fasted): 1 (17) n (%); ↑ Cholesterol Grade 2 (laboratory abnormality) (single dose 0.2 mg fasted): 1 (17) n (%); ↑ Creatine kinase Grade 2 (laboratory abnormality) (single dose 0.2 mg fasted): 0 n (%); ↑ Creatine kinase Grade 4 (laboratory abnormality) (single dose 0.2 mg fasted): 0 n (%); ↑ Glucose Grade 2 (laboratory abnormality) (single dose 0.2 mg fasted): 0 n (%); ↑ LDL cholesterol Grade 2 (laboratory abnormality) (single dose 0.2 mg fasted): 1 (17) n (%); ↑ LDL cholesterol Grade 3 (laboratory abnormality) (single dose 0.2 mg fasted): 0 n (%); ↑ Lipase Grade 2 (laboratory abnormality) (single dose 0.2 mg fasted): 0 n (%); ↑ Pancreatic amylase Grade 2 (laboratory abnormality) (single dose 0.2 mg fasted): 0 n (%); ↑ Potassium Grade 2 (laboratory abnormality) (single dose 0.2 mg fasted): 0 n (%); ↑ Sodium Grade 2 (laboratory abnormality) (single dose 0.2 mg fasted): 0 n (%); ↑ Triglycerides Grade 2 (laboratory abnormality) (single dose 0.2 mg fasted): 2 (33) n (%); ↑ Triglycerides Grade 3 (laboratory abnormality) (single dose 0.2 mg fasted): 0 n (%); ↓ Bicarbonate Grade 2 (laboratory abnormality) (single dose 0.2 mg fasted): 1 (17) n (%); ↓ GFR Grade 2 (laboratory abnormality) (single dose 0.2 mg fasted): 0 n (%); ↓ Lymphocytes Grade 2 (laboratory abnormality) (single dose 0.2 mg fasted): 0 n (%); ↓ Lymphocytes Grade 4 (laboratory abnormality) (single dose 0.2 mg fasted): 0 n (%); ↓ Neutrophils Grade 2 (laboratory abnormality) (single dose 0.2 mg fasted): 0 n (%); ↓ Phosphate Grade 2 (laboratory abnormality) (single dose 0.2 mg fasted): 0 n (%); Any AE (treatment-emergent) (single dose 0.6 mg fasted): 3 (50) n (%); Back pain Grade 1 (treatment-emergent AE) (single dose 0.6 mg fasted): 0 n (%); Chills Grade 1 (treatment-emergent AE) (single dose 0.6 mg fasted): 0 n (%); Contact dermatitis Grade 1 (treatment-emergent AE) (single dose 0.6 mg fasted): 0 n (%); Dizziness Grade 1 (treatment-emergent AE) (single dose 0.6 mg fasted): 0 n (%); ECG actual value: Heart rate (bpm) Low (single dose 0.6 mg fasted): 0 n (%); ECG actual value: QRS (ms) High (single dose 0.6 mg fasted): 0 n (%); ECG actual value: QTcB (ms) ]450; 480] (single dose 0.6 mg fasted): 0 n (%); ECG actual value: QTcF (ms) ]450; 480] (single dose 0.6 mg fasted): 0 n (%); ECG change from reference: QTcB (ms) [30; 60] (single dose 0.6 mg fasted): 3 (50.0%) n (%); ECG change from reference: QTcF (ms) [30; 60] (single dose 0.6 mg fasted): 0 n (%); Headache Grade 1 (treatment-emergent AE) (single dose 0.6 mg fasted): 0 n (%); Headache Grade 2 (treatment-emergent AE) (single dose 0.6 mg fasted): 0 n (%); Hypertension Grade 1 (treatment-emergent AE) (single dose 0.6 mg fasted): 0 n (%); Hypertension Grade 2 (treatment-emergent AE) (single dose 0.6 mg fasted): 0 n (%); Myalgia Grade 1 (treatment-emergent AE) (single dose 0.6 mg fasted): 0 n (%); Oropharyngeal pain Grade 1 (treatment-emergent AE) (single dose 0.6 mg fasted): 1 (17) n (%); Pyrexia Grade 1 (treatment-emergent AE) (single dose 0.6 mg fasted): 0 n (%); Pyrexia Grade 2 (treatment-emergent AE) (single dose 0.6 mg fasted): 0 n (%); URTI Grade 1 (treatment-emergent AE) (single dose 0.6 mg fasted): 0 n (%); lab toxicity: Amylase (U/L), upwards, Grade 1 (single dose 0.6 mg fasted): 0 n (%); lab toxicity: Amylase (U/L), upwards, Grade 2 (single dose 0.6 mg fasted): 0 n (%); lab toxicity: Cholesterol (mmol/L), upwards, Grade 1 (single dose 0.6 mg fasted): 2 (33.3%) n (%)
